# Tests used:
# Type in all cases: functional
# [1] = system: Meloidogyne incognita; experiment: Nematocidal activity against Meloidogyne incognita second-stage juveniles up to 72 hrs
# [2] = system: Rodentolepis nana; experiment: Antihelmintic activity against Hymenolepis nana
# [3] = system: Haemonchus contortus; experiment: Antihelmintic activity against larval stage of Haemonchus contortus
# [4] = system: Haemonchus contortus; experiment: Antihelmintic activity against egg stage of Haemonchus contortus
# [5] = system: Haemonchus contortus; experiment: Antihelmintic activity against Haemonchus contortus L3 larval stage
# [6] = system: Taenia crassiceps; experiment: Cysticidal activity against Taenia crassiceps cysts after 11 days by trypan blue exclusion method; settings: 264 h
# [7] = system: Schistosoma mansoni; experiment: Antiparasitic activity against Schistosoma mansoni
# [8] = system: Caenorhabditis elegans; experiment: Nematocidal activity against Caenorhabditis elegans
# [9] = system: Meloidogyne incognita; experiment: Nematocidal activity against Meloidogyne incognita; settings: for IC50: Meloidogyne incognita
# [10] = system: Bursaphelenchus xylophilus; experiment: Antiparasitic activity against Bursaphelenchus xylophilus
# [11] = system: Panagrellus redivivus; experiment: Antiparasitic activity against Panagrellus redivivus
# [12] = system: Raillietina echinobothrida; experiment: Antiparasitic activity against Raillietina echinobothrida
# [13] = system: Paramphistomum; experiment: Antiparasitic activity against Paramphistomum sp.
# [14] = Antiparasitic activity against Taenia solium
# [15] = system: Nippostrongylus brasiliensis; experiment: Nematocidal activity against Nippostrongylus brasiliensis L4 larval stage
# [16] = system: Trichostrongylus colubriformis; experiment: Antihelmintic activity against Trichostrongylus colubriformis
# [17] = system: Brugia malayi; experiment: Antiparasitic activity against Brugia malayi
# [18] = system: Haemonchus contortus; experiment: Nematocidal activity against Haemonchus contortus
# [19] = system: Ascaridia galli; experiment: Antihelmintic activity against Ascaridia galli
# [20] = system: Metaphire posthuma; experiment: Antihelmintic activity against Pheretima posthuma
# [21] = system: Setaria cervi; experiment: Antiparasitic activity against Setaria cervi
# [22] = system: Ascaris suum; experiment: Antiparasitic activity against L3 and L4 larval stages of Ascaris suum
# [23] = system: Meloidogyne incognita; experiment: Nematocidal activity against Meloidogyne incognita second-stage juveniles after 3 days by light microscopic method
smiles,measurement,setting,value
Cc1ccc(C(C)C)cc1 [P-CYMENE],IC50,[1],3240 µM
CCCCC[C@H](O)C[C@@H](O)CCc1ccc(O)c(OC)c1,EC,[2],0.001 mM
CCCCC/C=C/C(=O)CCc1ccc(O)c(OC)c1 [SHOGAOL],EC,[2],0.001 mM
Cc1ccc(C(C)C)c(O)c1 [THYMOL],IC50,[3],16600 µM
same,IC50,[4],3660 µM
CO[C@H]1[C@H](O)[C@@H](O)[C@@H](O)[C@H](O)[C@@H]1O [METHYLINOSITOL],IC50,[5],22700 µM
CC(C)[C@@]12C=C[C@@](C)(CC1)OO2 [(Z)-ASCARIDOLE],IC50,[1],190 µM
O=c1cc(-c2ccccc2)oc2cc(O)cc(O)c12 [CHRYSIN],IC50,[6],80 µM
CC1=CC2C(=O)c3cccc(O)c3C(=O)C2C(O)=C1O (stereo not given),EC,[7],0.19 mM
C=CCc1ccc(O)c(OC)c1 [EUGENOL],IC50,[8],370 µM
same,IC50,[9],400 µM
C=C1C(=O)O[C@@H]2[C@H]1CC/C(C)=C/CC[C@]1(C)O[C@@H]21,IC50,[10],280 µM
same,IC50,[11],180 µM
O=c1c(-c2ccc(O)cc2)coc2cc(O)cc(O)c12 [GENISTEIN],EC,[12],0.74 mM
same,EC,[13],0.74 mM
CCCC(=O)C1=C(O)C(C)(C)C(O)=C(Cc2c(O)c(C)c(OC)c(C(=O)CCC)c2O)C1=O,EC,[7],0.01 mM
CCCCCCCCC[C@H](O)CC(=O)CCc1ccc(O)c(OC)c1,EC,[2],0.001 mM
CC[C@H](CC[C@@H](C)[C@H]1CC[C@]2(C)[C@]1(C)CC[C@@H]1[C@@]3(C)CC[C@H](O[C@@H]4O[C@H](CO)[C@@H](O)[C@H](O)[C@H]4O)CC3=CC[C@]12C)C(C)C,EC,[14],17.34 mM
O=C1c2cccc(O)c2C(=O)C2C(O)=C(O)C(CO)=CC12 (stereo not given),EC,[7],0.17 mM
CCC/C=C/C(=O)CCc1ccc(O)c(OC)c1,EC,[2],0.001 mM
CCCC(=O)c1c(O)c(CC2=C(O)C(C)(C)C(O)=C(C(C)=O)C2=O)c(O)c(CC2=C(O)C(C)(C)C(O)=C(C(C)=O)C2=O)c1O,IC50,[15],28 µM
C=C(C)[C@@H]1CC[C@]2(C)CC[C@]3(C)[C@H](CC[C@@H]4[C@@]5(C)CC[C@H](O)C(C)(C)[C@@H]5CC[C@]43C)[C@@H]12 [LUPEOL],IC50,[8],5 to 6 µM
same,IC50,[5],50 µM
same,IC50,[16],190 µM
CCCCC[C@H](O)CC(=O)CCc1ccc(O)c(OC)c1 [GINGEROL],EC,[2],0.001 mM
CC1(C)CC[C@]2(C(=O)O)CC[C@]3(C)C(=CC[C@@H]4[C@@]5(C)CC[C@H](O)C(C)(C)[C@@H]5CC[C@]43C)[C@@H]2C1 [OLEANOLIC_ACID],EC,[17],0.06 to 0.13 mM
C[C@@H]1CC[C@]2(C(=O)O)CC[C@]3(C)C(=CC[C@@H]4[C@@]5(C)CC[C@H](O)C(C)(C)[C@@H]5CC[C@]43C)[C@@H]2[C@]1(C)O [POMOLIC ACID],EC,[9],2.11 mM
C=C1C(=O)O[C@@H]2[C@H]3C(CO)=CC(=O)C3=C(C)CC[C@@H]12 [DEOXYLACTUCIN],EC,[18],4.99 mM
CC(C)[C@]12C=C[C@](C)(CC1)COOC2,IC50,[1],7860 µM
C=C1CC[C@H]2[C@@](C)(CCC[C@]2(C)C(=O)O)[C@@H]1C/C=C(\C)[C@H]1CCc2c(O)c(C(=O)CCC)c(O)c(CC3=C(O)C(C)(C)C(O)=C(C(C)=O)C3=O)c2O1,IC50,[15],22 µM
CC[C@H](CC[C@@H](C)[C@H]1CC[C@@H]2[C@]1(C)CC[C@H]1[C@@]2(C)CC=C2C[C@@H](O)CC[C@@]21C)C(C)C,EC,[17],>1.2 mM
C=C1CC[C@H]2[C@@](C)(CCC[C@]2(C)C(=O)O)[C@@H]1C/C=C(\C)[C@@H]1CCc2c(O)c(C(=O)CCC)c(O)c(CC3=C(O)C(C)(C)C(O)=C(C(C)=O)C3=O)c2O1,IC50,[15],34 µM
CCCCCCCCCCCCCCCCCCCCCC(=O)OC[C@@H](O)CO,EC,[14],23.24 mM
CC(C)=CC(=O)O[C@@H]1C[C@@H](C)C(C)(O)[C@H]2C3=CC[C@@H]4[C@@]5(C)CC[C@H](O)C(C)(C)[C@@H]5CC[C@@]4(C)[C@]3(C)CC[C@]21C(=O)O (stereo not given in full),EC,[9],1.75 mM
CCCCCC(=O)/C=C(O)/C=C/c1ccc(O)c(OC)c1,EC,[2],0.001 mM
C=CCc1ccc(OC)c(OC)c1 [METHYLEUGENOL],IC50,[9],500 µM
C[C@H]1CC[C@@]2(OC1)O[C@H]1C[C@H]3[C@@H]4CC[C@H]5C[C@@H](O[C@@H]6O[C@H](CO)[C@H](O[C@@H]7O[C@H](CO)[C@@H](O)[C@H](O[C@@H]8OC[C@@H](O)[C@H](O)[C@H]8O)[C@H]7O[C@@H]7OC[C@@H](O)[C@H](O)[C@H]7O)[C@H](O)[C@H]6O[C@@H]6O[C@@H](C)[C@H](O)[C@@H](O)[C@H]6O)CC[C@]5(C)[C@H]4CC[C@]3(C)[C@H]1[C@@H]2C,IC50,[8],60 µM
C=CCc1ccc(OC)cc1 [ESTRAGOLE],IC50,[9],1250 µM
CCCCC[C@H](O)C[C@H](O)CCc1ccc(O)c(OC)c1,EC,[2],0.001 mM
COc1cc(CC/C=C/C(=O)CCc2ccc(O)c(OC)c2)ccc1O,EC,[2],0.001 mM
CCCC(=O)C1=C(O)C(C)(C)C(O)=C(Cc2c(O)c(CC3=C(O)C(C)(C)C(O)=C(C(C)=O)C3=O)c(O)c(C(=O)CCC)c2O)C1=O,IC50,[15],37 µM
CCCCCCCCC/C=C/C(=O)CCc1ccc(O)c(OC)c1,EC,[2],0.001 mM
CC(C)=CC(=O)O[C@@H]1CC(C)(C)C[C@H]2C3=CC(=O)[C@@H]4[C@]56CC[C@](O)(OC5)C(C)(C)[C@@H]6CC[C@@]4(C)[C@]3(C)CC[C@@]12C(=O)O,EC,[9],1.71 mM
CCCC(=O)C1=C(O)C(C)(C)C(O)=C(Cc2c(OC)cc(O)c(C(=O)CCC)c2O)C1=O [DESASPIDIN],EC,[7],0.01 mM
CCN(CC)c1ccc2c(C)cc(=O)oc2c1,EC,[19],4.32 mM
same,EC,[20],4.32 mM
COc1cc(/C=C/C(=O)CC(=O)/C=C/c2ccc(O)c(OC)c2)ccc1O [CURCUMIN],EC,[7],0.005 mM
CCCCCCCCCCCCCCCCC(=O)OC[C@@H](O)CO,EC,[14],29.5 mM
O=C1OCCN2Oc3ccccc3C12 (stereo not given),EC,[19],5.23 mM
same,EC,[20],5.23 mM
C=C(C)[C@@H]1CC[C@]2(C(=O)O)CC[C@]3(C)[C@H](CC[C@@H]4[C@@]5(C)CC[C@H](O)C(C)(C)[C@@H]5CC[C@]43C)[C@@H]12 [BETULINIC ACID],IC50,[8],150 to 220 µM
same,IC50,[5],110 µM
same,EC,[14],21.9 mM
same,IC50,[16],180 µM
"C=C(C)[C@@H]1CCC2(C)OC2C1 (single isomer, unassigned; (+))",EC,[7],0.16 mM
C=C1C(=O)O[C@@H]2[C@H]3C(CO)=CC(=O)C3=C(C)C[C@@H](O)[C@@H]12 [LACTUCIN],EC,[18],2.89 mM
CC(C)=C[C@H](O)C[C@@H](C)[C@H]1CC[C@@]2(C)[C@@H]3[C@@H](O)C=C4[C@@H](CC[C@H](O)C4(C)C)[C@@]3(C=O)CC[C@]12C,IC50,[8],30 µM
COc1cc(CCC(=O)C[C@@H](O)CCc2ccc(O)c(OC)c2)ccc1O,EC,[2],0.001 mM
C[C@H]1[C@H](C)CC[C@]2(C(=O)O)CC[C@]3(C)C(=CC[C@@H]4[C@@]5(C)CC[C@H](O)C(C)(C)[C@@H]5CC[C@]43C)[C@H]12 [URSOLIC ACID],IC50,[8],50 µM
same,EC,[9],2.18 mM
same,EC,[21],0.004 mM
CCO[C@@H]1O[C@H](CO)[C@H](O)[C@H](O)[C@H]1O,EC,[17],>2.4 mM
CC[C@H](CC[C@@H](C)[C@H]1CC[C@@H]2[C@]1(C)CC[C@H]1[C@@]2(C)CC=C2C[C@@H](O[C@@H]3O[C@H](CO)[C@@H](O)[C@H](O)[C@H]3O)CC[C@@]21C)C(C)C,IC50,[8],140 µM
same,EC,[17],>0.86 mM
O=C/C=C/c1ccccc1 [CINNAMALDEHYDE],EC,[22],0.2 mM
O=C1C[C@@H](c2ccccc2)Oc2cc(O)cc(O)c21 [PINOCEMBRIN],IC50,[6],2 µM
CCCCC[C@H](O)CC(=O)CCc1cc(O)c(O)c(OC)c1,EC,[2],0.001 mM
CC1(C)OC(=O)NC(C(=O)O)c2ccc(O)cc21 (stereo not given),EC,[19],3.9 mM
same,EC,[20],3.9 mM
CC(C)CCCCCCCCCCCCCC(=O)OC[C@@H](O)CO,EC,[14],29.5 mM
C/C=C/c1ccc(OC)cc1 [ANETHOLE],IC50,[3],14200 µM
same,IC50,[4],4650 µM
C=C1CC[C@H]2[C@@](C)(CCC[C@]2(C)C(=O)O)[C@@H]1C/C=C(\C)[C@@H]1CCc2c(C)c(CC3=C(O)C(C)(C)C(O)=C(C(C)=O)C3=O)c(O)c(C(=O)CCC)c2O1,IC50,[15],118 µM
O=C(O)c1ccc(O)c(O)c1 [PROTOCATECHUIC ACID],EC,[23],0.78 mM
CC1(C)C[C@@H](O)[C@]2(C(=O)O)CC[C@]3(C)C(=CC[C@@H]4[C@@]5(C)CCC(=O)C(C)(C)[C@@H]5CC[C@]43C)[C@@H]2C1,EC,[9],2.12 mM

# — ChEMBL document CHEMBL4004860, “Medicinal plants used as anthelmintics: Ethnomedical, pharmacological, and phytochemical studies” (Eur J Med Chem, 2017)
